Values after ≈ are worked out from the molar mass of the structure shown.
How the values were obtained:
human NK1 receptors = molecular target: T1, human NK1 receptors (Homo sapiens, UniProt P25103); assay: NK1 receptor binding, [3H]substance P displacement; settings: human NK1 receptor in CHO cells, [3H]substance P 0.6 nM; read-out: affinity to the NK-1 receptor, given as pKi (converted)
T1 construct: expressed in transfected cells; host or cells: CHO cells infected using the Semliki virus expression system; membrane suspension used
T1 sequence (P25103 whole entry): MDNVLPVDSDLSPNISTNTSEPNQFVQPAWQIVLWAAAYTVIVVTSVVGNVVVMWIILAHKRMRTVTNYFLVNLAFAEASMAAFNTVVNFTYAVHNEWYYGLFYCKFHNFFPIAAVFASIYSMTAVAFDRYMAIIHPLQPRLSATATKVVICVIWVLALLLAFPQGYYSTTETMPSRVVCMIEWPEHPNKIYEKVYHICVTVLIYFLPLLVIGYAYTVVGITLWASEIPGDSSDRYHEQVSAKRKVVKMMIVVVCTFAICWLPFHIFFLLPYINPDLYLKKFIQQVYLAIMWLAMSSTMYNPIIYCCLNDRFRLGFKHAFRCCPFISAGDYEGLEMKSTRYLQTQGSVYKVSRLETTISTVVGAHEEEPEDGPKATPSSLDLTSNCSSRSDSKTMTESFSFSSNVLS
Experimental: The compounds were investigated in accordance with the tests given hereinafter. The affinity of test compounds for the NK1 receptor was evaluated at human NK1 receptors in CHO cells infected with the human NK1 receptor (using the Semliki virus expression system) and radiolabelled with [^3H]substance P (final concentration 0.6 nM). Binding assays were performed in HEPES buffer (50 mM, pH 7.4) containing BSA (0.04%) leupeptin (8 μg/ml), MnCl2 (3 mM) and phosphoramidon (2 μM). Binding assays consisted of 250 μl of membrane suspension (1.25×10^5 cells/assay tube), […] of buffer of displacing agent and 125 μl of [^3H]substance P. Displacement curves were determined with at least seven concentrations of the compound. The assay tubes were incubated for 60 min at room temperature after which time the tube contents were rapidly filtered under vacuum through GF/C filters presoaked for 60 min with PEI (0.3%) with 2×2 ml washes of HEPES buffer (50 mM, pH 7.4). The radioactivity retained on the filters was measured by scintillation counting. All assays were performed in triplicate in at least 2 separate experiments.
The affinity to the NK-1 receptor, given as pKi is described in the table below: […]

[1] = Metabolic stability in vitro in microsomes; format: in vitro ADME; settings: in comparison with 2-(3,5-bis-trifluoromethyl-phenyl)-N-methyl-N-[6-(4-methyl-piperazin-1-yl)-4-o-tolyl-pyridin-3-yl]-isobutyramide
Equilibrium solubility = format: physicochemical; settings: for solubility at 24 h: 21 °C, aqueous buffer, thermodynamic from solid
Experimental: Method Description Equilibrium Solubility
[…] A known amount of drug, generally 1–2 mg, was added to 250 μl of buffer (glass tubes), and the resulting suspension was stirred for 2 h (21° C.), after 5 minutes of sonification. The pH of the solution was checked and corrected if necessary (in case of pH correction, the solution was once more shaken and equilibrated), and after 24 h the suspension was filtered through a 0.65-μm filter. The filtered solution was then assayed by HPLC to determine the drug concentration. In cases where the drug had completely dissolved in the buffer, the value for equilibrium solubility was assumed to be higher than the value determined by HPLC and was reported as such. Stock solutions (˜1 mg/ml) in DMSO were used in the preparation of a calibration curve in the related buffer using HPLC analytics.

[2] = PAMPA PSR4p permeability assay; format: in vitro ADME; settings: for Acceptor (sample distribution) / Donor (sample distribution) / Membrane (sample distribution) / PE (permeation constant) / PE class: pH 6.5, DMSO stock solution
Experimental: The permeability has been searched by the PAMPA PSR4p assay, which is based on 96 well microplates. The permeability is measured using a “sandwich” construction. A filterplate is coated with phospholipids (membrane) and placed into a donor plate containing a drug/buffer solution. Finally the filterplate is filled with buffer solution (acceptor). The donor concentration is measured at t-start (reference) and compared with the donor and acceptor concentration after a certain time t-end.
The following setup is used for the PAMPA PSR4p assay: • Donor: 0.05 M MOPSO buffer at ph 6.5+0.5% (w/v) Glyco cholic acid • Membrane: 10% (w/v) Egg lecithin+0.5% (w/v) cholesterol in dodecane • Acceptor: 0.05 MOPSO buffer at pH 6.5
The liquid handling is done with a TECAN RSP150 pipetting robot. The drug analysis is based on UV spectroscopy. All samples are transferred into 96 well UV plates. A SpectralMax 190 UV plate reader is used to collect the UV spectras.
The pipetting steps can be divided into four parts: 1. Dilution of stock solutions and filtration, 2. Preparation of reference and PAMPA PSR4p sandwich, 3. Transfer of acceptor solutions into UV plate, 4. Transfer of donor solutions into UV plate. The PAMPA PSR4p assay contains information about the sample precipitation in the donor buffer UV spectras of the sample, read at the start of the assay (t-start: reference) and at the end (t-end: donor, acceptor) allow the determination of a sample distribution in donor, membrane and acceptor. Because of the known permeation time (t-end, t-start) a permeation constant can be retrieved.

[3] = buffer 0.05 M Phosphate, pH 6.5 (EP 1 035 115) / pH 6.7 (Compound I-2)

Ki (human NK1 receptors) [nM] | metabolic stability in vitro in microsomes [1] | solubility, fold higher than the compared compound disclosed in EP 1035 115 (Equilibrium solubility) [fold] | solubility at 24 h (Equilibrium solubility; [3]) [µg/mL] | solubility at 24 h (Equilibrium solubility; buffer 0.15 M Citrate, pH 4.1) [µg/mL] | permeation speed compared with the corresponding compound of EP 1 035 115 [2] | Acceptor (sample distribution) [2] [%] | Donor (sample distribution) [2] [%] | Membrane (sample distribution) [2] [%] | PE (permeation constant) [2] [cm/s × 10^−6] | PE class [2] | SMILES
1 | higher metabolic stability | – | – | – | – | – | – | – | – | – | Cc1ccccc1-c1cc(N2CC[N+](C)([O-])CC2)ncc1N(C)C(=O)C(C)(C)c1cc(C(F)(F)F)cc(C(F)(F)F)c1 [Compound I-1, 2-(3,5-Bis-trifluoromethyl-phenyl)-N-methyl-N-[6-(4-methyl-4-oxy-piperazin-1-yl)-4-o-tolyl-pyridin-3-yl]-isobutyramide]
0.794 | – | 8 | 8 (≈ 13.5 µM) | 200 (≈ 336 µM) | three times higher | 3 | 26 | 72 | 1.81 | high | CN1CCN(c2cc(-c3ccccc3CO)c(N(C)C(=O)C(C)(C)c3cc(C(F)(F)F)cc(C(F)(F)F)c3)cn2)CC1 [Compound I-2, 2-(3,5-Bis-trifluoromethyl-phenyl)-N-[4-(2-hydroxymethyl-phenyl)-6-(4-methyl-piperazin-1-yl)-pyridin-3-yl]-N-methyl-isobutyramide]
– | – | – | 1 (≈ 1.73 µM) | 26 (≈ 44.9 µM) | – | 2 | 50 | 49 | 0.56 | medium | Cc1ccccc1-c1cc(N2CCN(C)CC2)ncc1N(C)C(=O)C(C)(C)c1cc(C(F)(F)F)cc(C(F)(F)F)c1 [EP 1 035 115, 2-(3,5-bis-trifluoromethyl-phenyl)-N-methyl-N-[6-(4-methyl-piperazin-1-yl)-4-o-tolyl-pyridin-3-yl]-isobutyramide, reference compound]
